Data: PubChem BioAssay (NCI)
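Protocol summary: plate cells (96-well), add compound at 5 concentrations, incubate 48 h, interpolate endpoints linearly. TGI denotes the concentration required for complete inhibition of growth.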

These compounds were tested on DU-145 prostate (assay: NCI-60 cell line screen, 48 h).

Which TGI does the source give for `NC(Cc1ccccc1)C(=O)NC(Cc1ccccc1)NC(=O)C(Cc1c[nH]c2ccccc12)C(=O)O` (stereo not drawn) here?
The TGI was over 100 µM.

`COc1cc(S(=O)(=O)Nc2ccc(-c3csc(N4C(=O)CSC4c4cccc(Oc5ccccc5)c4)n3)cc2)ccc1Cl` (stereo not drawn) was tested. Which TGI did it give?
The TGI was over 100 µM.

Which TGI does the source give for `O=C1c2cccc3cc([N+](=O)[O-])cc(c23)C(=O)N1Nc1ccc([N+](=O)[O-])cc1[N+](=O)[O-]` here?
Its TGI is over 46.4 µM.

How did the TGI turn out when `CC(=O)CC1CCC(=O)/C=C/C(=O)OC(CC(C)=O)CCC(=O)/C=C/C(=O)O1` (stereo not drawn) was run?
The TGI was 35 µM.

Which TGI does the source give for `O=C1c2sc(-c3ccc(Cl)cc3)cc2-n2cccc21` here?
Its TGI is over 100 µM.

`O=C1SC(SCc2ccccc2)=NC12CC2c1ccccc1` (stereo not drawn) was tested. Which TGI did it give?
Its TGI is over 81 µM.

For `N=c1oc2ccccc2cc1C(=O)NC12CC3CC(CC(C3)C1)C2`, which TGI is on record?
Its TGI is over 84.3 µM.

Which TGI does the source give for `O=C1NC2(CCN(CCc3ccccc3)CC2)Oc2ccccc21` here?
The TGI was over 100 µM.

With `COc1cc2c(/C=C3/C(=O)Nc4cccc(Cl)c43)c(Cl)[nH]c2cc1C` as the compound, how does the TGI read?
Its TGI is 5.66 µM.

For `Nc1ncc2c(n1)-c1ccccc1OC2N1CCCCC1` (stereo not drawn), which TGI is on record?
The TGI was over 100 µM.

Which TGI does the source give for `Cc1ccc(S(=O)(=O)N2C3C=CC(C3)[C@@H]2C(Cl)(Cl)Cl)cc1` (stereo partly drawn) here?
Its TGI is over 81.2 µM.

`COCOC1/C=C/CCCCC(=O)C(C)C#CC1` (stereo not drawn) was tested. Which TGI did it give?
The TGI was 25.4 µM.

`C[N+]12C=CC=C1C(N1CCCC1)c1scc(-c3ccc(Br)cc3)c12` (stereo not drawn) was tested. Which TGI did it give?
Its TGI is over 100 µM.

For `COC(=O)c1cccc(C)c1C1CN=NC12Cc1cc(C)cc(C)c1C2=O` (stereo not drawn), which TGI is on record?
The TGI was over 100 µM.

With `O=C1c2ccccc2-n2nnnc2C2CSCN12` (stereo not drawn) as the compound, how does the TGI read?
The TGI was over 100 µM.

With `CCOC(=O)/C(C#N)=C/c1coc2cc(C)cc(C)c2c1=O` as the compound, how does the TGI read?
The TGI was over 100 µM.

`COc1ccc(C(SCCO)(c2ccccc2)c2ccc(OC)cc2)cc1` was tested. Which TGI did it give?
Its TGI is 30.6 µM.

For `O=C1C(Br)=C(Br)C(=O)c2ccc(=O)ccc21`, which TGI is on record?
Its TGI is over 100 µM.

With `CC(N)/C(N)=N/O` (stereo not drawn) as the compound, how does the TGI read?
The TGI was over 100 µM.

`CCOC(=O)CCC(NC(=O)C(N)Cc1ccc(N(CCCl)CCCl)cc1)C(=O)OCC` (stereo not drawn) was tested. Which TGI did it give?
Its TGI is 2.34 µM.

With `COc1ccccc1CC(=O)C(O)(C(F)(F)F)C(F)(F)F` as the compound, how does the TGI read?
The TGI was over 100 µM.

How did the TGI turn out when `CCOC(=O)c1ccc(-c2cc(C)no2)[nH]1` was run?
Its TGI is over 100 µM.

What follows are compounds tested on NCI-H522 lung (assay: NCI-60 cell line screen, 48 h).

How did the TGI turn out when `NC(Cc1ccccc1)C(=O)NC(Cc1ccccc1)NC(=O)C(Cc1c[nH]c2ccccc12)C(=O)O` (stereo not drawn) was run?
The TGI was over 100 µM.

`COc1cc(S(=O)(=O)Nc2ccc(-c3csc(N4C(=O)CSC4c4cccc(Oc5ccccc5)c4)n3)cc2)ccc1Cl` (stereo not drawn) was tested. Which TGI did it give?
Its TGI is over 100 µM.

With `O=C1c2cccc3cc([N+](=O)[O-])cc(c23)C(=O)N1Nc1ccc([N+](=O)[O-])cc1[N+](=O)[O-]` as the compound, how does the TGI read?
Its TGI is 28.6 µM.

With `CC(=O)CC1CCC(=O)/C=C/C(=O)OC(CC(C)=O)CCC(=O)/C=C/C(=O)O1` (stereo not drawn) as the compound, how does the TGI read?
The TGI was 2.91 µM.

Which TGI does the source give for `O=C1c2sc(-c3ccc(Cl)cc3)cc2-n2cccc21` here?
Its TGI is over 100 µM.

`O=C1SC(SCc2ccccc2)=NC12CC2c1ccccc1` (stereo not drawn) was tested. Which TGI did it give?
The TGI was 33.5 µM.

With `N=c1oc2ccccc2cc1C(=O)NC12CC3CC(CC(C3)C1)C2` as the compound, how does the TGI read?
Its TGI is 14.8 µM.

`O=C1NC2(CCN(CCc3ccccc3)CC2)Oc2ccccc21` was tested. Which TGI did it give?
The TGI was over 100 µM.

How did the TGI turn out when `COc1cc2c(/C=C3/C(=O)Nc4cccc(Cl)c43)c(Cl)[nH]c2cc1C` was run?
The TGI was 6.74 µM.

`Nc1ncc2c(n1)-c1ccccc1OC2N1CCCCC1` (stereo not drawn) was tested. Which TGI did it give?
The TGI was over 100 µM.

`Cc1ccc(S(=O)(=O)N2C3C=CC(C3)[C@@H]2C(Cl)(Cl)Cl)cc1` (stereo partly drawn) was tested. Which TGI did it give?
The TGI was 41.3 µM.

Which TGI does the source give for `COCOC1/C=C/CCCCC(=O)C(C)C#CC1` (stereo not drawn) here?
The TGI was 3.37 µM.

For `C[N+]12C=CC=C1C(N1CCCC1)c1scc(-c3ccc(Br)cc3)c12` (stereo not drawn), which TGI is on record?
Its TGI is 9.89 µM.

For `COC(=O)c1cccc(C)c1C1CN=NC12Cc1cc(C)cc(C)c1C2=O` (stereo not drawn), which TGI is on record?
The TGI was over 100 µM.

With `O=C1c2ccccc2-n2nnnc2C2CSCN12` (stereo not drawn) as the compound, how does the TGI read?
The TGI was over 100 µM.

For `CCOC(=O)/C(C#N)=C/c1coc2cc(C)cc(C)c2c1=O`, which TGI is on record?
Its TGI is over 100 µM.

How did the TGI turn out when `COc1ccc(C(SCCO)(c2ccccc2)c2ccc(OC)cc2)cc1` was run?
Its TGI is 24.9 µM.

Which TGI does the source give for `O=C1C(Br)=C(Br)C(=O)c2ccc(=O)ccc21` here?
Its TGI is 7.25 µM.

For `CC(N)/C(N)=N/O` (stereo not drawn), which TGI is on record?
The TGI was over 100 µM.

How did the TGI turn out when `CCOC(=O)CCC(NC(=O)C(N)Cc1ccc(N(CCCl)CCCl)cc1)C(=O)OCC` (stereo not drawn) was run?
Its TGI is 0.853 µM.

`COc1ccccc1CC(=O)C(O)(C(F)(F)F)C(F)(F)F` was tested. Which TGI did it give?
The TGI was over 100 µM.

For `CCOC(=O)c1ccc(-c2cc(C)no2)[nH]1`, which TGI is on record?
Its TGI is over 100 µM.

Each compound was assayed on SNB-19 CNS (assay: NCI-60 cell line screen, 48 h).

For `NC(Cc1ccccc1)C(=O)NC(Cc1ccccc1)NC(=O)C(Cc1c[nH]c2ccccc12)C(=O)O` (stereo not drawn), which TGI is on record?
The TGI was over 100 µM.

With `COc1cc(S(=O)(=O)Nc2ccc(-c3csc(N4C(=O)CSC4c4cccc(Oc5ccccc5)c4)n3)cc2)ccc1Cl` (stereo not drawn) as the compound, how does the TGI read?
Its TGI is over 100 µM.

With `O=C1c2cccc3cc([N+](=O)[O-])cc(c23)C(=O)N1Nc1ccc([N+](=O)[O-])cc1[N+](=O)[O-]` as the compound, how does the TGI read?
Its TGI is 38.9 µM.

`CC(=O)CC1CCC(=O)/C=C/C(=O)OC(CC(C)=O)CCC(=O)/C=C/C(=O)O1` (stereo not drawn) was tested. Which TGI did it give?
Its TGI is 43.4 µM.

For `O=C1c2sc(-c3ccc(Cl)cc3)cc2-n2cccc21`, which TGI is on record?
The TGI was over 100 µM.

Which TGI does the source give for `O=C1SC(SCc2ccccc2)=NC12CC2c1ccccc1` (stereo not drawn) here?
The TGI was 71.1 µM.

With `N=c1oc2ccccc2cc1C(=O)NC12CC3CC(CC(C3)C1)C2` as the compound, how does the TGI read?
Its TGI is 80.5 µM.

`O=C1NC2(CCN(CCc3ccccc3)CC2)Oc2ccccc21` was tested. Which TGI did it give?
The TGI was over 100 µM.

Which TGI does the source give for `COc1cc2c(/C=C3/C(=O)Nc4cccc(Cl)c43)c(Cl)[nH]c2cc1C` here?
Its TGI is 7.13 µM.

`Nc1ncc2c(n1)-c1ccccc1OC2N1CCCCC1` (stereo not drawn) was tested. Which TGI did it give?
The TGI was over 100 µM.

With `Cc1ccc(S(=O)(=O)N2C3C=CC(C3)[C@@H]2C(Cl)(Cl)Cl)cc1` (stereo partly drawn) as the compound, how does the TGI read?
Its TGI is over 87.6 µM.

With `COCOC1/C=C/CCCCC(=O)C(C)C#CC1` (stereo not drawn) as the compound, how does the TGI read?
Its TGI is 32.6 µM.

How did the TGI turn out when `C[N+]12C=CC=C1C(N1CCCC1)c1scc(-c3ccc(Br)cc3)c12` (stereo not drawn) was run?
The TGI was 39.2 µM.

Which TGI does the source give for `COC(=O)c1cccc(C)c1C1CN=NC12Cc1cc(C)cc(C)c1C2=O` (stereo not drawn) here?
The TGI was over 100 µM.

How did the TGI turn out when `O=C1c2ccccc2-n2nnnc2C2CSCN12` (stereo not drawn) was run?
The TGI was over 100 µM.

For `CCOC(=O)/C(C#N)=C/c1coc2cc(C)cc(C)c2c1=O`, which TGI is on record?
Its TGI is over 100 µM.

For `COc1ccc(C(SCCO)(c2ccccc2)c2ccc(OC)cc2)cc1`, which TGI is on record?
The TGI was 22.8 µM.

For `O=C1C(Br)=C(Br)C(=O)c2ccc(=O)ccc21`, which TGI is on record?
Its TGI is over 100 µM.

Which TGI does the source give for `CC(N)/C(N)=N/O` (stereo not drawn) here?
Its TGI is over 100 µM.

For `CCOC(=O)CCC(NC(=O)C(N)Cc1ccc(N(CCCl)CCCl)cc1)C(=O)OCC` (stereo not drawn), which TGI is on record?
The TGI was 15.5 µM.

`COc1ccccc1CC(=O)C(O)(C(F)(F)F)C(F)(F)F` was tested. Which TGI did it give?
The TGI was over 100 µM.

For `CCOC(=O)c1ccc(-c2cc(C)no2)[nH]1`, which TGI is on record?
Its TGI is over 100 µM.

Each compound was assayed on 786-0 renal (assay: NCI-60 cell line screen, 48 h).

With `NC(Cc1ccccc1)C(=O)NC(Cc1ccccc1)NC(=O)C(Cc1c[nH]c2ccccc12)C(=O)O` (stereo not drawn) as the compound, how does the TGI read?
The TGI was over 100 µM.

`COc1cc(S(=O)(=O)Nc2ccc(-c3csc(N4C(=O)CSC4c4cccc(Oc5ccccc5)c4)n3)cc2)ccc1Cl` (stereo not drawn) was tested. Which TGI did it give?
Its TGI is over 100 µM.

Which TGI does the source give for `O=C1c2cccc3cc([N+](=O)[O-])cc(c23)C(=O)N1Nc1ccc([N+](=O)[O-])cc1[N+](=O)[O-]` here?
The TGI was 35.7 µM.

With `CC(=O)CC1CCC(=O)/C=C/C(=O)OC(CC(C)=O)CCC(=O)/C=C/C(=O)O1` (stereo not drawn) as the compound, how does the TGI read?
Its TGI is 10.6 µM.

Which TGI does the source give for `O=C1c2sc(-c3ccc(Cl)cc3)cc2-n2cccc21` here?
Its TGI is over 100 µM.

For `O=C1SC(SCc2ccccc2)=NC12CC2c1ccccc1` (stereo not drawn), which TGI is on record?
Its TGI is 39.2 µM.

Which TGI does the source give for `N=c1oc2ccccc2cc1C(=O)NC12CC3CC(CC(C3)C1)C2` here?
Its TGI is 9.92 µM.

With `O=C1NC2(CCN(CCc3ccccc3)CC2)Oc2ccccc21` as the compound, how does the TGI read?
The TGI was over 100 µM.

Which TGI does the source give for `COc1cc2c(/C=C3/C(=O)Nc4cccc(Cl)c43)c(Cl)[nH]c2cc1C` here?
Its TGI is 4.15 µM.

With `Nc1ncc2c(n1)-c1ccccc1OC2N1CCCCC1` (stereo not drawn) as the compound, how does the TGI read?
Its TGI is over 100 µM.

With `Cc1ccc(S(=O)(=O)N2C3C=CC(C3)[C@@H]2C(Cl)(Cl)Cl)cc1` (stereo partly drawn) as the compound, how does the TGI read?
Its TGI is 49.5 µM.

Which TGI does the source give for `COCOC1/C=C/CCCCC(=O)C(C)C#CC1` (stereo not drawn) here?
Its TGI is 5.44 µM.

`C[N+]12C=CC=C1C(N1CCCC1)c1scc(-c3ccc(Br)cc3)c12` (stereo not drawn) was tested. Which TGI did it give?
Its TGI is over 100 µM.

For `COC(=O)c1cccc(C)c1C1CN=NC12Cc1cc(C)cc(C)c1C2=O` (stereo not drawn), which TGI is on record?
Its TGI is over 100 µM.

`O=C1c2ccccc2-n2nnnc2C2CSCN12` (stereo not drawn) was tested. Which TGI did it give?
The TGI was over 100 µM.

How did the TGI turn out when `CCOC(=O)/C(C#N)=C/c1coc2cc(C)cc(C)c2c1=O` was run?
The TGI was over 100 µM.

For `COc1ccc(C(SCCO)(c2ccccc2)c2ccc(OC)cc2)cc1`, which TGI is on record?
Its TGI is 29.1 µM.
